The target of this experiment is T1, human ROCKα/ROCKII mix (Homo sapiens, UniProt O75116).
T1 construct: purchased Upstate Biotechnology 14-451
The experiment can be described thus: ROCK inhibition, fluorescence polarization (FP) assay with ROCK IMAP Kit. Type of experiment: biochemical. In general terms: Polarisation of emitted light reports the rotation of a fluorescent probe.

Setting [1] is: Table 3, compounds of Formula III20.
Where [2] appears, read: Table 1, compounds of Formula IV20.
Setting [3] is: Table 2, compounds of Formula V20.

Counter-ions that a name gives are not always drawn.

T1 sequence (O75116 whole entry): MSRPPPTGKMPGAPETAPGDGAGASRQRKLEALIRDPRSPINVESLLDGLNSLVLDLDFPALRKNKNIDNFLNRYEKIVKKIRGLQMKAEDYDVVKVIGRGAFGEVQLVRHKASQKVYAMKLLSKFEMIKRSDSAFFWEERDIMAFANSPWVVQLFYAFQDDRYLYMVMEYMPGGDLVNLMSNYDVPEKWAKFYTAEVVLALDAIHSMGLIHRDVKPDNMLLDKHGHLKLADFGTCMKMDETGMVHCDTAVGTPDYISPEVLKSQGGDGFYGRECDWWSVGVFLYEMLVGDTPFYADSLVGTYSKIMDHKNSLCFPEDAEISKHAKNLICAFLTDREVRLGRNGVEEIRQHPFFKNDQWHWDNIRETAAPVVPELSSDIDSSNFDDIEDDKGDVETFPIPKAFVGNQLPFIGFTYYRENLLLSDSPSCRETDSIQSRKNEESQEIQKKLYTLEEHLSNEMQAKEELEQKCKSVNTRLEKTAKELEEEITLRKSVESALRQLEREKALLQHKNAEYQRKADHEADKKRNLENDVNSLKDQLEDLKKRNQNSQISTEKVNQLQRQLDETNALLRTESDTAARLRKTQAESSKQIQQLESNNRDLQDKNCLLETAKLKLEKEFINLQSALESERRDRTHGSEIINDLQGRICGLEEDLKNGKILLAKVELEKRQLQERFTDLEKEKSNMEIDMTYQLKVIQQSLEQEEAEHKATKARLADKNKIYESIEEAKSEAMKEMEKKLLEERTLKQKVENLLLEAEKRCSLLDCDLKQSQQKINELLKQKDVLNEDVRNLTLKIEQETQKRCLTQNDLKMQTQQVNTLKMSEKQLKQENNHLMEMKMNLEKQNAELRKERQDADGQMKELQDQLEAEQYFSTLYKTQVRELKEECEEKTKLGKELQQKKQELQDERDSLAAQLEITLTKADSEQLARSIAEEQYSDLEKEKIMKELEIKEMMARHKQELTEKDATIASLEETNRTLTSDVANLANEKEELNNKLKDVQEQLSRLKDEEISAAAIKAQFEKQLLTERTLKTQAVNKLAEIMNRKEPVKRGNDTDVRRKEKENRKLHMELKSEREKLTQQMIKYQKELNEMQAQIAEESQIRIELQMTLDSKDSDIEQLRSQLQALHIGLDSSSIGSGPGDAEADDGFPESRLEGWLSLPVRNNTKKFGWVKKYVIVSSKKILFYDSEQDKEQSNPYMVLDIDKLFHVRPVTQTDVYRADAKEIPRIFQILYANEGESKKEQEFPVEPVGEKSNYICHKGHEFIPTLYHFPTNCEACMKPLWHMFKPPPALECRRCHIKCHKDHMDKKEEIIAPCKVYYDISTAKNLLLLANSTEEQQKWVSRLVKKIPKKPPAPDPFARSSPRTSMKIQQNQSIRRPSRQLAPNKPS

With `NC(CC(=O)N1CCCC1c1ccccc1)c1ccc(C(=O)Nc2ccncc2)cc1` (stereo not drawn) [Compound 84, 4-[1-amino-3-oxo-3-(2-phenyl-pyrrolidin-1-yl)-propyl]-N-pyridin-4-yl-benzamide], under setting [1], the IC50 was less than 0.5 µM.
Same read-out and setting: the result for `NC(CC(=O)N1CCN(C(=O)c2ccco2)CC1)c1ccc(C(=O)Nc2ccncc2)cc1` (stereo not drawn) [Compound 124, 4-{1-amino-3-[4-(furan-2-carbonyl)-piperazin-1-yl]-3-oxo-propyl}-N-pyridin-4-yl-benzamide] reads less than 0.5 µM.
In the case of `NC(C(=O)NCc1ccccc1)c1ccc(C(=O)Nc2ccncc2)cc1` (stereo not drawn) [Compound 1], the IC50 under setting [2] is less than 0.5 µM.
On the same count and under the same terms, the result for `NC(C(=O)Nc1ccccc1)c1ccc(C(=O)Nc2ccncc2)cc1` (stereo not drawn) [Compound 20, 4-(amino-phenylcarbamoyl-methyl)-N-pyridin-4-yl-benzamide] reads 0.5 to 5 µM; that for `NC(C(=O)N1CCN(Cc2ccccc2F)CC1)c1ccc(C(=O)Nc2ccncc2)cc1` (stereo not drawn) [Compound 48, 4-{1-amino-2-[4-(2-fluoro-benzyl)-piperazin-1-yl]-2-oxo-ethyl}-N-pyridin-4-yl-benzamide], 0.5 to 5 µM.
Under setting [3], `Cc1ccccc1S(=O)(=O)NCC(N)c1ccc(C(=O)Nc2ccncc2)cc1` (stereo not drawn) [Compound 64, 4-[1-amino-2-(2-methyl-benzenesulfonylamino)-ethyl]-N-pyridin-4-yl-benzamide] displayed an IC50 of less than 0.5 µM.
For `NC(C(=O)N1CCN(Cc2ccc(F)cc2)CC1)c1ccc(C(=O)Nc2ccncc2)cc1` (stereo not drawn) [Compound 49, 4-{1-amino-2-[4-(4-fluoro-benzyl)-piperazin-1-yl]-2-oxo-ethyl}-N-pyridin-4-yl-benzamide], under setting [2], the IC50 was in the range of 0.5 to 5 µM.
As for `COC(=O)c1ccc2c(c1)CCN(C(=O)CC(N)c1ccc(C(=O)Nc3ccncc3)cc1)C2` (stereo not drawn) [Compound 126, 2-{3-amino-3-[4-(pyridin-4-ylcarbamoyl)-phenyl]-propionyl}-1,2,3,4-tetrahydro-isoquinoline-6-carboxylic acid methyl ester], the IC50 under setting [1] lay in the range of 0.5 to 5 µM.
Under setting [2], `NC(C(=O)NCc1ccccn1)c1ccc(C(=O)Nc2ccncc2)cc1` (stereo not drawn) [Compound 10, 4-{amino-[(pyridin-2-ylmethyl)-carbamoyl]-methyl}-N-pyridin-4-yl-benzamide] gave an IC50 of 0.5 to 5 µM.
Under “Table 4, compounds 132 to 156”, `N[C@@H](CC(=O)N1CCC[C@@H]1c1cccc(F)c1)c1ccc(C(=O)Nc2ccncc2)cc1` [Compound 151, 4-{(S)-1-Amino-3-[(R)-2-(3-fluoro-phenyl)-pyrrolidin-1-yl]-3-oxo-propyl}-N-pyridin-4-yl-benzamide dihydrochloric acid salt] displayed an IC50 of less than 0.5 µM.
With `NC(C(=O)N1CCc2ccccc2C1)c1ccc(C(=O)Nc2ccncc2)cc1` (stereo not drawn) [Compound 13, 4-[1-amino-2-(3,4-dihydro-1H-isoquinolin-2-yl)-2-oxo-ethyl]-N-pyridin-4-yl-benzamide], under setting [2], the IC50 is less than 0.5 µM.
Still for that read-out and setting: the result for `NC(C(=O)NCc1cccc(Cl)c1)c1ccc(C(=O)Nc2ccncc2)cc1` (stereo not drawn) [Compound 7, 4-[amino-(3-chloro-benzylcarbamoyl)-methyl]-N-pyridin-4-yl-benzamide] reads less than 0.5 µM.
As to `NC(CNS(=O)(=O)c1ccccc1Cl)c1ccc(C(=O)Nc2ccncc2)cc1` (stereo not drawn) [Compound 69, 4-[1-amino-2-(2-chloro-benzenesulfonylamino)-ethyl]-N-pyridin-4-yl-benzamide], the IC50 under setting [3] is less than 0.5 µM.
`NC(CC(=O)N1CCN(CCO)CC1)c1ccc(C(=O)Nc2ccncc2)cc1` (stereo not drawn) [Compound 115, 4-{1-amino-3-[4-(2-hydroxy-ethyl)-piperazin-1-yl]-3-oxo-propyl}-N-pyridin-4-yl-benzamide]: the IC50 under setting [1] was less than 0.5 µM.
The same measure, in the same setting: next, `NC(CC(=O)N1CCCC1c1ccc(Cl)cc1)c1ccc(C(=O)Nc2ccncc2)cc1` (stereo not drawn) [Compound 90, 4-{1-amino-3-[2-(4-chloro-phenyl)-pyrrolidin-1-yl]-3-oxo-propyl}-N-pyridin-4-yl-benzamide]: less than 0.5 µM; `NC(CC(=O)N1CCCC2CCCCC21)c1ccc(C(=O)Nc2ccncc2)cc1` (stereo not drawn) [Compound 110, 4-[1-amino-3-(octahydro-quinolin-1-yl)-3-oxo-propyl]-N-pyridin-4-yl-benzamide]: less than 0.5 µM.
Molecule `NC(C(=O)N1CCC(Cc2ccccc2)CC1)c1ccc(C(=O)Nc2ccncc2)cc1` (stereo not drawn) [Compound 31, 4-[1-amino-2-(4-benzyl-piperidin-l-yl)-2-oxo-ethyl]-N-pyridin-4-yl-benzamide] showed an IC50 under setting [2] of 0.5 to 5 µM.
Same read-out and setting: the result for `NC(C(=O)NCc1ccccc1Cl)c1ccc(C(=O)Nc2ccncc2)cc1` (stereo not drawn) [Compound 6, 4-[amino-(2-chloro-benzylcarbamoyl)-methyl]-N-pyridin-4-yl-benzamide] reads less than 0.5 µM; that for `NC(C(=O)NCCc1cccs1)c1ccc(C(=O)Nc2ccncc2)cc1` (stereo not drawn) [Compound 17, 4-[amino-(2-thiophen-2-yl-ethylcarbamoyl)-methyl]-N-pyridin-4-yl-benzamide], less than 0.5 µM.
Under setting [1], `NC(CC(=O)N1CCCCC1c1cc(Cl)ccc1Cl)c1ccc(C(=O)Nc2ccncc2)cc1` (stereo not drawn) [Compound 95, 4-{1-amino-3-[2-(2,5-dichloro-phenyl)-piperidin-1-yl]-3-oxo-propyl}-N-pyridin-4-yl-benzamide] yielded an IC50 of less than 0.5 µM.
`CN(CC(N)c1ccc(C(=O)Nc2ccncc2)cc1)S(=O)(=O)c1ccccc1F` (stereo not drawn) [Compound 142, 4-{1-Amino-2-[(2-fluoro-benzenesulfonyl)-methyl-amino]-ethyl}-N-pyridin-4-yl-benzamide dihydrochloric acid salt] yielded an IC50 (Table 4, compounds 132 to 156) of 0.5 to 5 µM.
Turning to `NC(CNS(=O)(=O)c1cccc(-c2ccccc2)c1)c1ccc(C(=O)Nc2ccncc2)cc1` (stereo not drawn) [Compound 75], the IC50 under setting [3] fell in the range of 0.5 to 5 µM.
Same read-out and setting: the result for `CCCCCCCCS(=O)(=O)NCC(N)c1ccc(C(=O)Nc2ccncc2)cc1` (stereo not drawn) [Compound 59, 4-[1-amino-2-(octane-1-sulfonylamino)-ethyl]-N-pyridin-4-yl-benzamide] reads 0.5 to 5 µM.
`N[C@@H](C(=O)NCc1ccccc1)c1ccc(C(=O)Nc2ccncc2)cc1` [Compound 156, 4-((R)-Amino-benzylcarbamoyl-methyl)-N-pyridin-4-yl-benzamide dihydrochloric acid salt]: the IC50 (Table 4, compounds 132 to 156) is 0.5 to 5 µM.
On to `CN(CC(N)c1ccc(C(=O)Nc2ccncc2)cc1)S(=O)(=O)c1cccc(F)c1` (stereo not drawn) [Compound 141, 4-{1-Amino-2-[(3-fluoro-benzenesulfonyl)-methyl-amino]-ethyl}-N-pyridin-4-yl-benzamide dihydrochloric acid salt], for which the IC50 (Table 4, compounds 132 to 156) lay in the range of 0.5 to 5 µM.
Take `COC(=O)c1ccc(C2CCCCN2C(=O)CC(N)c2ccc(C(=O)Nc3ccncc3)cc2)cc1` (stereo not drawn) [Compound 127, 4(1-{3-amino-3-[4-(pyridin-4-ylcarbamoyl)-phenyl]-propionyl}-piperidin-2-yl)-benzoic acid methyl ester]: the IC50 under setting [1] is less than 0.5 µM.
Same read-out and setting: next, `NC(CC(=O)N1CCCC1c1cc(F)ccc1F)c1ccc(C(=O)Nc2ccncc2)cc1` (stereo not drawn) [Compound 88, 4-{1-amino-3-[2-(2,5-difluoro-phenyl)-pyrrolidin-1-yl]-3-oxo-propyl}-N-pyridin-4-yl-benzamide]: less than 0.5 µM.
On to `CN(C)CCNC(=O)C(N)c1ccc(C(=O)Nc2ccncc2)cc1` (stereo not drawn) [Compound 44], for which the IC50 under setting [2] lay within 0.5 to 5 µM.
Under setting [1], `NC(CC(=O)N1CCCC1c1ccc(Cl)c(Cl)c1)c1ccc(C(=O)Nc2ccncc2)cc1` (stereo not drawn) [Compound 91, 4-{1-amino-3-[2-(3,4-dichloro-phenyl)-pyrrolidin-1-yl]-3-oxo-propyl}-N-pyridin-4-yl-benzamide] showed an IC50 of less than 0.5 µM.
Consider `NC(CC(=O)N1CCC(c2nc3ccccc3o2)CC1)c1ccc(C(=O)Nc2ccncc2)cc1` (stereo not drawn) [Compound 120, 4-[1-amino-3-(4-benzooxazol-2-yl-piperidin-1-yl)-3-oxo-propyl]-N-pyridin-4-yl-benzamide], for which the IC50 under setting [1] was less than 0.5 µM.
In the case of `CCS(=O)(=O)NCC(N)c1ccc(C(=O)Nc2ccncc2)cc1` (stereo not drawn) [Compound 56], the IC50 under setting [3] was less than 0.5 µM.
Molecule `NC(CC(=O)N1CCN(Cc2ccc(F)cc2)CC1)c1ccc(C(=O)Nc2ccncc2)cc1` (stereo not drawn) [Compound 123, 4-{1-amino-3-[4-(4-fluoro-benzyl)-piperazin-1-yl]-3-oxo-propyl}-N-pyridin-4-yl-benzamide] came in with an IC50 under setting [1] of less than 0.5 µM.
As for `COc1ccc(S(=O)(=O)N(C)C[C@@H](N)c2ccc(C(=O)Nc3ccncc3)cc2)cc1` [Compound 154, 4-{(S)1-Amino-2-[(4-methoxy-benzenesulfonyl)-methyl-amino]-ethyl}-N-pyridin-4-yl-benzamide dihydrochloric acid salt], the IC50 (Table 4, compounds 132 to 156) was less than 0.5 µM.
Molecule `CN(CC(N)c1ccc(C(=O)Nc2ccncc2)cc1)S(=O)(=O)c1ccc(Cl)cc1` (stereo not drawn) [Compound 145, 4-{1-Amino-2-[(4-chloro-benzenesulfonyl)-methyl-amino]-ethyl}-N-pyridin-4-yl-benzamide dihydrochloric acid salt] had an IC50 (Table 4, compounds 132 to 156) of 0.5 to 5 µM.
`NC(CNS(=O)(=O)c1cccc2ccccc12)c1ccc(C(=O)Nc2ccncc2)cc1` (stereo not drawn) [Compound 77, 4-[1-amino-2-(naphthalene-1-sulfonylamino)-ethyl]-N-pyridin-4-yl-benzamide] gave an IC50 under setting [3] of less than 0.5 µM.
Under setting [2], `CC1CN(C(=O)C(N)c2ccc(C(=O)Nc3ccncc3)cc2)CC(C)O1` (stereo not drawn) [Compound 35, 4-[1-amino-2-(2,6-dimethyl-mopholin-4-yl)-2-oxo-ethyl]-N-pyridin-4-yl-benzamide] registered a half-maximal inhibitory concentration (IC50) of 0.5 to 5 µM.
Take `NC(c1ccc(C(=O)Nc2ccncc2)cc1)C1CCCN1S(=O)(=O)c1ccccc1Cl` (stereo not drawn) [Compound 133, 4-{Amino-[1-(2-chloro-benzenesulfonyl)-pyrrolidin-2-yl]-methyl}-N-pyridin-4-yl-benzamide dihydrochloric acid salt]: the concentration for half-maximal inhibition (IC50) (Table 4, compounds 132 to 156) lay in the range of 0.5 to 5 µM.
`NC(CNS(=O)(=O)c1cccc(Cl)c1)c1ccc(C(=O)Nc2ccncc2)cc1` (stereo not drawn) [Compound 68, 4-[1-amino-2-(3-chloro-benzenesulfonylamino)-ethyl]-N-pyridin-4-yl-benzamide] yielded an IC50 under setting [3] of less than 0.5 µM.
Molecule `NC(c1ccc(C(=O)Nc2ccncc2)cc1)C1CCCN1S(=O)(=O)c1cccc(Cl)c1` (stereo not drawn) [Compound 134, 4-{Amino-[1-(3-chloro-benzenesulfonyl)-pyrrolidin-2-yl]-methyl}-N-pyridin-4-yl-benzamide dihydrochloric acid salt] yielded an IC50 (Table 4, compounds 132 to 156) of 0.5 to 5 µM.

As a reminder, the IC50 is the midpoint of a concentration-inhibition curve.

These data come from patent US20100190788A1, “Amide derivatives as kinase inhitors” (priority 2005, published 2010).
